Measured values published in ChEMBL document CHEMBL5385846, “Discovery and development of palmatine analogues as anti-NASH agents by activating farnesoid X receptor (FXR)” (Eur J Med Chem, 2023).
Calls of active or inactive are those of the source. The rule behind the calls is not given here.

What was measured:
[1] = target: Collagen alpha-1(I) chain (Homo sapiens) (UniProt P02452); assay: Inhibition of COL1A1 (unknown origin) expressed in human LX2 cells at 20 micromol/L incubated for 48 hrs by Bright-Glo luciferase assay relative to control; type: cell-based; settings: dose 20.0 µmol/L
Sequence of Collagen alpha-1(I) chain (Homo sapiens) (P02452 whole entry): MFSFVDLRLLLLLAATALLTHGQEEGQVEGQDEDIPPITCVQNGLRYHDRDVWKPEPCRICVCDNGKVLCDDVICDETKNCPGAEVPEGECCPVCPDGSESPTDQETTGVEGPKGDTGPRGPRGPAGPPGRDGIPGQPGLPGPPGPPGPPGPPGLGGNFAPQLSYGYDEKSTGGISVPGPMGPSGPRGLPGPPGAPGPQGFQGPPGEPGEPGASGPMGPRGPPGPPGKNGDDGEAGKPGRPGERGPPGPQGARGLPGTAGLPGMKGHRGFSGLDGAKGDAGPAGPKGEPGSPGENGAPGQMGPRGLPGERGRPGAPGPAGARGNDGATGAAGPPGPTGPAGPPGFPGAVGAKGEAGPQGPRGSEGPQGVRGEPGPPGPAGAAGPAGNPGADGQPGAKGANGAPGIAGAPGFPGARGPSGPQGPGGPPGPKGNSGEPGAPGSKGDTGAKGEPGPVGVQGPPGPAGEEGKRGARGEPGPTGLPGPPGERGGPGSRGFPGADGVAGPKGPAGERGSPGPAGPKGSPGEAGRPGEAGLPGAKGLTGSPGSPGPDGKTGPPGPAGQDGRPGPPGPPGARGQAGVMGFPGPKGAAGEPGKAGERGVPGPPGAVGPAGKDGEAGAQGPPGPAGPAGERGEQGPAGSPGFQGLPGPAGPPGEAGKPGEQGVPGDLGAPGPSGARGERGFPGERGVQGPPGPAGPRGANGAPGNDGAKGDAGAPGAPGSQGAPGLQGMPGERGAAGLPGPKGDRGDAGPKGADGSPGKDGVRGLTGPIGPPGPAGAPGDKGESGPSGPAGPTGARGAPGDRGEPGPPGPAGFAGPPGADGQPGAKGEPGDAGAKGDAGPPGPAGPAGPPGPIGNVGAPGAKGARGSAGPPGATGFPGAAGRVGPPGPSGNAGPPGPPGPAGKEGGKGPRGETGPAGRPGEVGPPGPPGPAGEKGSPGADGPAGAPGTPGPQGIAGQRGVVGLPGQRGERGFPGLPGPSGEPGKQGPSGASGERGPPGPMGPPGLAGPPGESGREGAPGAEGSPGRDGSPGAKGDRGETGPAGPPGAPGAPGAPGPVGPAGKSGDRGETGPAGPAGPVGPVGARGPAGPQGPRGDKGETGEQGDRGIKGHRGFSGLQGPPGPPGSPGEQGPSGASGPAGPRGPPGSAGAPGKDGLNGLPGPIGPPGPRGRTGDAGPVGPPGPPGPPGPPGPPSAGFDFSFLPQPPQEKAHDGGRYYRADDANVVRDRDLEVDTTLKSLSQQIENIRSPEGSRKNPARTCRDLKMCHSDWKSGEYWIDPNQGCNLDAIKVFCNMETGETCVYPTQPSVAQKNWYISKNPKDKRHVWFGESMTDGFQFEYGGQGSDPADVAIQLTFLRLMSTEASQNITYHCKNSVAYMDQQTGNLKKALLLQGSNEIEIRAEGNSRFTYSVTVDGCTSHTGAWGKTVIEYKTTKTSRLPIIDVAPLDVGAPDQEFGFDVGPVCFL

COL1A1 = assay: Selectivity index, ratio of CC50 for cytotoxicity against human LX2 cells to IC50 for inhibition of COL1A1 (unknown origin) expressed in human LX2 cells; type: toxicity, cell-based; settings: read-out: Ratio CC50/IC50
[2] = Cytotoxicity against human LX2 cells assessed as inhibition of cell growth; type: toxicity, cell-based, LX-2
Mus musculus [3] = assay: Hepatoprotective activity in CDAHFD induced C57BL/6N mouse liver injury model assessed as decrease in triglyceride level at 15 mg/kg,po qd administration for 4 weeks; type: functional, organism-based
Mus musculus [4] = assay: Hepatoprotective activity in CDAHFD induced C57BL/6N mouse liver injury model assessed as decrease in total cholesterol at 15 mg/kg,po qd administration for 4 weeks; type: functional, organism-based
Mus musculus [5] = assay: Hepatoprotective activity in CDAHFD induced C57BL/6N mouse liver injury model assessed as effect on HDL level at 15 mg/kg,po qd administration for 4 weeks; type: functional, organism-based
Mus musculus [6] = assay: Hepatoprotective activity in CDAHFD induced C57BL/6N mouse liver injury model assessed as effect on AST level at 15 mg/kg,po qd administration for 4 weeks; type: functional, organism-based
Mus musculus [7] = assay: Hepatoprotective activity in CDAHFD induced C57BL/6N mouse liver injury model assessed as effect on LDL level at 15 mg/kg,po qd administration for 4 weeks; type: functional, organism-based
Mus musculus [8] = assay: Hepatoprotective activity in CDAHFD induced C57BL/6N mouse liver injury model assessed as effect on ALT level at 15 mg/kg,po qd administration for 4 weeks; type: functional, organism-based
Mus musculus [9] = assay: Hepatoprotective activity in CDAHFD induced C57BL/6N mouse liver injury model assessed as effect on total bilirubin level at 15 mg/kg,po qd administration for 4 weeks; type: functional, organism-based
Mus musculus [10] = assay: Hepatoprotective activity in CDAHFD induced C57BL/6N mouse liver injury model assessed as effect on LDH level at 15 mg/kg,po qd administration for 4 weeks; type: functional, organism-based
Mus musculus [11] = assay: Hepatoprotective activity in CDAHFD induced C57BL/6N mouse liver injury model assessed as effect on ALP level at 15 mg/kg,po qd administration for 4 weeks; type: functional, organism-based
Mus musculus [12] = assay: Hepatoprotective activity in CDAHFD induced C57BL/6N mouse liver injury model assessed as effect on glucose level at 15 mg/kg,po qd administration for 4 weeks; type: functional, organism-based

For `COc1cc2c(cc1OC)-c1cc3ccc(OC)c(NCc4ccc(C)cc4)c3c[n+]1CC2`, the inhibition [1] was 79.2%, the selectivity ratio (COL1A1) was 5.82 and the CC50 [2] was 65.5 µM.

In the case of `COc1cc2c(cc1OC)-c1cc3ccc(OC)c(OCCc4ccc(C(F)(F)F)cc4)c3c[n+]1CC2`, the inhibition [1] was 56.3%, the selectivity ratio (COL1A1) was 6.05 and the CC50 [2] was 88.9 µM.

With `CCCCC(=O)Nc1c(OC)ccc2cc3[n+](cc12)CCc1cc(OC)c(OC)cc1-3` the inhibition [1] was 0%.

Molecule `COc1cc2c(cc1OC)-c1cc3ccc(OC)c(NC(=O)C4CCCCC4)c3c[n+]1CC2` has an inhibition [1] of 3.33%.

`CCOc1cc2c(cc1OC)-c1cc3ccc(OC)c(NCc4ccc(F)cc4)c3c[n+]1CC2` showed an inhibition [1] of 24.8%.

In the case of `COc1cc2c(cc1OC)-c1c(Cc3ccccc3C#N)c3ccc(OC)c(OC)c3c[n+]1CC2`, the inhibition [1] was 24.9%.

Molecule `COc1cc2c(cc1OC)-c1cc3ccc(OC)c(OC(C)c4ccccc4)c3c[n+]1CC2` (stereo not given) has an inhibition [1] of 22.1%.

Work on `COc1cc(Cc2c3[n+](cc4c(OC)c(OC)ccc24)CCc2cc(OC)c(OC)cc2-3)cc(OC)c1` yielded an inhibition [1] of 39%.

Work on `COc1cc2c(cc1OC)-c1c(Cc3cccc(C)c3)c3ccc(OC)c(OC)c3c[n+]1CC2` yielded an inhibition [1] of 0%.

For `O=C(O[C@@H]1Cc2c(O)cc(O)cc2O[C@@H]1c1cc(O)c(O)c(O)c1)c1cc(O)c(O)c(O)c1`, the inhibition [1] was 27.6%.

Molecule `COc1cc2c(cc1OC)-c1c(Cc3ccc(C#N)cc3)c3ccc(OC)c(OC)c3c[n+]1CC2` has an inhibition [1] of 16.3%.

With `COc1cc2c(cc1OC)-c1cc3ccc(OC)c(NCc4ccc(Br)cc4)c3c[n+]1CC2` the inhibition [1] was 18.4%.

For `COc1cc2c(cc1OC)-c1cc3ccc(OC)c(NC(=O)C4CCCC4)c3c[n+]1CC2`, the inhibition [1] was 10.8%.

`COc1cc2c(cc1OC)-c1cc3ccc(OC)c(NC(=O)c4cc(C)nn4C)c3c[n+]1CC2` showed an inhibition [1] of 0%.

`COc1cc2c(cc1OC)-c1c(Cc3cccc(F)c3)c3ccc(OC)c(OC)c3c[n+]1CC2` showed an inhibition [1] of 24.8%.

In the case of `CCC(=O)Nc1c(OC)ccc2cc3[n+](cc12)CCc1cc(OC)c(OC)cc1-3`, the inhibition [1] was 0%.

`CCOc1cc2c(cc1OC)-c1cc3ccc(OC)c(NCc4ccccc4)c3c[n+]1CC2` showed an inhibition [1] of 12.4%.

In the case of `COc1cc2c(cc1OC)-c1cc3ccc(OC)c(OCc4cc(C)cc(C)c4)c3c[n+]1CC2`, the inhibition [1] was 25%.

For `COc1cc2c(cc1OC)-c1cc3ccc(OC)c(NC(=O)c4cccc(F)c4)c3c[n+]1CC2`, the inhibition [1] was 1.12%.

Molecule `COc1cc2c(cc1OC)-c1cc3ccc(OC)c(OCc4ccccn4)c3c[n+]1CC2` has an inhibition [1] of 15.2%.

For `COc1cc2c(cc1OC)-c1cc3ccc(OC)c(OCc4ccccc4C#N)c3c[n+]1CC2`, the inhibition [1] was 23%.

`COc1cc2c(cc1OC)-c1cc3ccc(OC)c(OC(=O)C(=O)c4cccnc4)c3c[n+]1CC2` gave an inhibition [1] of 6.07%.

With `CCCNc1c(OC)ccc2cc3[n+](cc12)CCc1cc(OC)c(OC)cc1-3` the inhibition [1] was 22.6%.

With `COc1cc2c(cc1OC)-c1cc3ccc(OC)c(OCc4ccc(C(F)(F)F)cc4)c3c[n+]1CC2` the inhibition [1] was 38.7%.

For `COc1cc2c(cc1OC)-c1c(Cc3cccc(Br)c3)c3ccc(OC)c(OC)c3c[n+]1CC2`, the inhibition [1] was 62.8%, the selectivity ratio (COL1A1) was 3.06 and the CC50 [2] was 45.5 µM.

For `COc1cc2c(cc1OC)-c1c(Cc3cccc(C#N)c3)c3ccc(OC)c(OC)c3c[n+]1CC2`, the inhibition [1] was 4.38%.

Molecule `COc1cc2c(cc1OC)-c1cc3ccc(OC)c(OC(=O)c4ccoc4C)c3c[n+]1CC2` has an inhibition [1] of 9.91%.

`COc1cc2c(cc1OC)-c1cc3ccc(OC)c(OCC4CCC4)c3c[n+]1CC2` gave an inhibition [1] of 9.25%.

With `COc1cc2c(cc1OC)-c1cc3ccc(OC)c(OC(=O)Cc4ccc(C(F)(F)F)cc4)c3c[n+]1CC2` the inhibition [1] was 12.4%.

In the case of `COc1cc2c(cc1OC)-c1cc3ccc(OC)c(NCc4cccc(C#N)c4)c3c[n+]1CC2`, the inhibition [1] was 10.5%.

In the case of `COc1cccc(COc2c(OC)ccc3cc4[n+](cc23)CCc2cc(OC)c(OC)cc2-4)c1`, the inhibition [1] was 21.4%.

For `CCCCCCCOc1c(OC)ccc2cc3[n+](cc12)CCc1cc(OC)c(OC)cc1-3`, the inhibition [1] was 94.4%.

Molecule `COC(=O)C(Oc1c(OC)ccc2cc3[n+](cc12)CCc1cc(OC)c(OC)cc1-3)c1ccccc1` (stereo not given) has an inhibition [1] of 23.4%.

For `CCOc1cc2c(cc1OC)-c1cc3ccc(OC)c(NCc4ccc(Br)cc4)c3c[n+]1CC2`, the inhibition [1] was 8.92%.

`COc1cc2c(cc1OC)-c1c(Cc3ccc(F)cc3)c3ccc(OC)c(OC)c3c[n+]1CC2` gave an inhibition [1] of 22.6%.

Molecule `COc1cc2c(cc1OC)-c1cc3ccc(OC)c(OCc4ccc(C(C)C)cc4)c3c[n+]1CC2` has an inhibition [1] of 75%, a selectivity ratio (COL1A1) of 3.66 and a CC50 [2] of 28.7 µM.

In the case of `CCCCCCCCC(=O)Nc1c(OC)ccc2cc3[n+](cc12)CCc1cc(OC)c(OC)cc1-3`, the inhibition [1] was 16.6%.

With `CCCCCCCCCOc1c(OC)ccc2cc3[n+](cc12)CCc1cc(OC)c(OC)cc1-3` the inhibition [1] was 99.9%.

For `CC[C@H]1[C@@H](O)[C@@H]2[C@H](CC[C@]3(C)[C@@H]([C@H](C)CCC(=O)O)CC[C@@H]23)[C@@]2(C)CC[C@@H](O)C[C@@H]12`, the Activity (Mus musculus [3]) was “Active”, the Activity (Mus musculus [4]) was “Active” and the Activity (Mus musculus [5]) was “inactive”. The Activity (Mus musculus [6]) was “inactive”, the Activity (Mus musculus [7]) was “inactive” and the Activity (Mus musculus [8]) was “inactive”. For the same molecule, the Activity (Mus musculus [9]) was “inactive”, the Activity (Mus musculus [10]) was “inactive” and the Activity (Mus musculus [11]) was “inactive”. The Activity (Mus musculus [12]) was “Active”.

Work on `COc1cc2c(cc1OC)-c1cc3ccc(OC)c(OC(=O)c4ccco4)c3c[n+]1CC2` yielded an inhibition [1] of 0%.

With `COc1cc2c(cc1OC)-c1cc3ccc(OC)c(OCC4CC4)c3c[n+]1CC2` the inhibition [1] was 14%.

Work on `COc1cc2c(cc1OC)-c1cc3ccc(OC)c(NC(=O)C4CCC4)c3c[n+]1CC2` yielded an inhibition [1] of 18.9%.

With `COc1cc2c(cc1OC)-c1cc3ccc(OC)c(OCc4ccc(C#N)cc4)c3c[n+]1CC2` the inhibition [1] was 5.2%.

In the case of `COc1cc2c(cc1OC)-c1cc3ccc(OC)c(OCc4ccc(F)cc4)c3c[n+]1CC2`, the inhibition [1] was 10.9%.

With `COc1cc2c(cc1OC)-c1c(Cc3cccc([N+](=O)[O-])c3)c3ccc(OC)c(OC)c3c[n+]1CC2` the inhibition [1] was 13%.

For `COc1ccc(C(=O)Nc2c(OC)ccc3cc4[n+](cc23)CCc2cc(OC)c(OC)cc2-4)cc1`, the inhibition [1] was 2.39%.

With `COc1cc2c(cc1OC)-c1cc3ccc(OC)c(OCc4ccc(Cl)cc4)c3c[n+]1CC2` the inhibition [1] was 28.9%.

`COc1cc2c(cc1OC)-c1cc3ccc(OC)c(NCc4ccc(F)cc4)c3c[n+]1CC2` gave an inhibition [1] of 23.7%.

Work on `COc1cc2c(cc1OC)-c1cc3ccc(OC)c(OCc4cccc(C#N)c4)c3c[n+]1CC2` yielded an inhibition [1] of 24.1%.

For `COc1cc2c(cc1OC)-c1cc3ccc(OC)c(OCC4CCCC4)c3c[n+]1CC2`, the inhibition [1] was 46%, the selectivity ratio (COL1A1) was 2.65 and the CC50 [2] was 64 µM.

`COc1ccc(COc2c(OC)ccc3cc4[n+](cc23)CCc2cc(OC)c(OC)cc2-4)cc1OC` showed an inhibition [1] of 12.6%.

Molecule `CCCCCOc1c(OC)ccc2cc3[n+](cc12)CCc1cc(OC)c(OC)cc1-3` has an inhibition [1] of 36.7%.

Molecule `COc1cc2c(cc1OC)-c1c(Cc3ccc(Br)cc3)c3ccc(OC)c(OC)c3c[n+]1CC2` has an inhibition [1] of 85.7%.

Molecule `COc1ccc(CNc2c(OC)ccc3cc4[n+](cc23)CCc2cc(OC)c(OC)cc2-4)c(OC)c1` has an inhibition [1] of 36%.

Molecule `COc1cc2c(cc1OC)-c1c(Cc3ccccc3C)c3ccc(OC)c(OC)c3c[n+]1CC2` has an inhibition [1] of 58.4%, a selectivity ratio (COL1A1) of 3.21 and a CC50 [2] of 45.6 µM.

For `COc1cc2c(cc1OC)-c1cc3ccc(OC)c(NCc4ccccc4)c3c[n+]1CC2`, the inhibition [1] was 25.4%.

With `CCOc1cc2c(cc1OC)-c1cc3ccc(OC)c(NCc4ccc(C)cc4)c3c[n+]1CC2` the inhibition [1] was 36%.

Work on `COc1cc2c(cc1OC)-c1c(Cc3ccc(C(C)C)cc3)c3ccc(OC)c(OC)c3c[n+]1CC2` yielded an inhibition [1] of 99.9%.

For `COC(=O)/C=C/c1ccc(Cc2c3[n+](cc4c(OC)c(OC)ccc24)CCc2cc(OC)c(OC)cc2-3)cc1`, the inhibition [1] was 0%.

`COc1cc2c(cc1OC)-c1cc3ccc(OC)c(OCc4ccc(C)cc4)c3c[n+]1CC2` gave an inhibition [1] of 25.6%.

Work on `CCCCCCNc1c(OC)ccc2cc3[n+](cc12)CCc1cc(OC)c(OC)cc1-3` yielded an inhibition [1] of 71.4%.

`CCCC(=O)Nc1c(OC)ccc2cc3[n+](cc12)CCc1cc(OC)c(OC)cc1-3` gave an inhibition [1] of 5.11%.

Work on `COc1cc2c(cc1OC)-c1cc3ccc(OC)c(NC(=O)c4ccccc4)c3c[n+]1CC2` yielded an inhibition [1] of 0%.

`COc1cc2c(cc1OC)-c1cc3ccc(OC)c(NCc4ccc(Cl)cc4)c3c[n+]1CC2` gave an inhibition [1] of 93.6%.
